IC50 data for 15 compounds are collected here from patent publication US20200331882A1, “COMPOUND FOR SIMULTANEOUSLY INHIBITING LSD1 AND HDAC TARGETS AND APPLICATION THEREOF” (PEKING UNIVERSITY SHENZHEN GRADUATE SCHOOL, priority 2018, published 2020).

Structures are written as SMILES.

The target of one assay is T1, HDAC1 (Homo sapiens, UniProt Q13547).
T1 construct: purchased Enzo Biochem Inc
Briefly: In vitro HDAC1 inhibitory activity, FLUOR DE LYS HDAC1 fluorometric assay kit. The format is biochemical. The conditions noted are these: HDAC1 enzyme activity in vitro. The text has this:
The principle was shown in the following reaction formula: HDAC1 catalyzes the deacetylation of a substrate FLUOR DE LYS® Substrate (containing an acetylated side chain), the product can react with FLUOR DE LYS® Developer II to generate fluorescence (shown in the following reaction process), and the inhibitory activity of a molecule to be detected on HDAC1 can be indirectly obtained by detecting the fluorescence intensity of the product. In this experiment, 360 nm was selected as the excitation wavelength and 460 nm as the emission wavelength for detection. FLUOR DE LYS® HDAC1 fluorometric drug discovery assay kit required for experiments was purchased from Enzo Biochem Inc.
During the test, the sample was prepared according to the specific experimental conditions of blocking the HDAC1 enzyme activity of the compound of the present invention in vitro in accordance with Table 2 below.

Assay [1] has as its target T2, recombinant human LSD1 protein (Homo sapiens, UniProt O60341).
T2 construct: made in house; host or cells: E. coli
Description: In vitro LSD1 inhibitory activity, LSD1-HRP coupling reaction (Amplex Red). The format is biochemical. Particulars: LSD1 enzyme activity in vitro; 30 min preincubation; H3K4Me2 peptide. From the text:
LSD1 activity was detected by using LSD1-HRP coupling reaction. […] During the reduction of H2O2 to H2O, Amplex Red acts as an electron donor and oxidizes to Resorufin for detection of fluorescence. […] Ampliflu™ Red, peroxidase, from horseradish required for the experiment was purchased from SIGMA; H3K4Me2 substrate peptide was purchased from GL Biochemical (Shanghai) Co., Ltd.

Assay [2] has as its system human colon adenocarcinoma cell HCT116. Description: MTT tumor cell proliferation. The format is cell-based. The text has this: (§1) MTT colorimetric method was used to detect the inhibitory activity of a series of compounds (i.e. ZZY-001 to ZZY-016, a total of 16 kinds) of the embodiment of the present invention on the proliferation of tumor cells in vitro. The full name of MTT is 3-(4,5-dimethyl-2-thiazolyl)-2,5-diphenyl-2-H-tetrazolium romide, which is a yellow dye also known as thiazolyl blue. […] DMSO can dissolve Formazan deposited in cells and the absorbance value can be measured with a enzyme marker at a wavelength of 490 nm. In a certain range of cell number, the production of Formazan is proportional to the number of cells, so the number of living cells can be inferred according to the measured OD value.
(§2) The cell suspension was inoculated on a 96-well plate at 100 μl/well and cultured in a constant temperature CO2 incubator for 24 h. Then the tested drugs were added, 100 μl/well, and cultured for 72 h. MTT was added to a 96-well plate, 20 μl/well, and reacted for 4 h in the incubator. Absorb the supernatant, add DMSO, 150 μl/well and shake for 10 min on the plate shaker. The optical density (OD value) of each well was measured by enzyme marker at the wavelength of 490 nm.

The test system of assay [3] is mouse breast cancer cell 4T1. Description: MTT tumor cell proliferation. The format is cell-based. Particulars: 72 h.
Text: as §1, §2

The subject of assay [4] is human breast cancer cell line BT-474. Briefly: MTT tumor cell proliferation. It is filed as cell-based. Particulars: 72 h.
Text: as §1, §2

In assay [5] the test system is mouse colon cancer cell CT26.WT. Description: MTT tumor cell proliferation. It is filed as cell-based. Particulars: 72 h.
Text: as §1, §2

Assay [6] concerns human breast cancer cell line MDA-MB-231. Briefly: MTT tumor cell proliferation. It is filed as cell-based. The conditions noted are these: 72 h.
Text: as §1
In the experiments of this embodiment, the selected cell lines are human breast cancer cell line MDA-MB-231 and BT-474, human colon adenocarcinoma cell HCT116, mouse colon cancer cell CT26.WT, mouse breast cancer cell 4T1. During the test, the cells in logarithmic phase and in good condition were digested with 0.25% trypsin digestion solution to make the adherent cells fall off, and the cell suspension (suspension cells without trypsin digestion) was made by counting 2-4×10^4 cells/ml. The cell suspension was inoculated on a 96-well plate at 100 μl/well and cultured in a constant temperature CO2 incubator for 24 h. Then the tested drugs were added, 100 μl/well, and cultured for 72 h. MTT was added to a 96-well plate, 20 μl/well, and reacted for 4 h in the incubator. Absorb the supernatant, add DMSO, 150 μl/well and shake for 10 min on the plate shaker. The optical density (OD value) of each well was measured by enzyme marker at the wavelength of 490 nm. […]

T1 sequence (Q13547 whole entry): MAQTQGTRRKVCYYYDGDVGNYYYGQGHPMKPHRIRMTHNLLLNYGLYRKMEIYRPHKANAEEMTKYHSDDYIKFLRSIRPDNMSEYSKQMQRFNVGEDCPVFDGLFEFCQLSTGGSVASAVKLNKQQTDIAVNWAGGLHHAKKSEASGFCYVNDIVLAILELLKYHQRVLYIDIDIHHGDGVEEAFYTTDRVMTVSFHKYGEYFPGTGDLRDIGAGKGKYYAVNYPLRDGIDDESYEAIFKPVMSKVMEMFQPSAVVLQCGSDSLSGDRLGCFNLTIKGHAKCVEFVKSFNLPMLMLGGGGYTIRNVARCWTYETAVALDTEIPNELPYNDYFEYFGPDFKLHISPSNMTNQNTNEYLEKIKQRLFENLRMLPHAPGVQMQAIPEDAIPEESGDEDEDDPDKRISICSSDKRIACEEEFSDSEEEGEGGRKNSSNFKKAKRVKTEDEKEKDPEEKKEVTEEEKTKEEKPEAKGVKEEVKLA

For orientation: IC50 means the point on the concentration scale where inhibition reaches its midpoint. For `O=C(/C=C/c1ccc(-c2ccc(N3CCOCC3)cc2)cc1)NO` [ZZY-008], the values for the IC50 (against HDAC1; in assay [1]) were 9360 nM and 716 nM, respectively.
On to `Cc1cc(/C=C/C(=O)NO)ccc1-c1ccc(N2CCNCC2)cc1NC(=O)c1ccccc1` [ZZY-002], for which the 50% inhibitory concentration (IC50) was 1290 nM in assay [2] (Homo sapiens, HCT-116, 72 h); 5610 nM in assay [3] (Mus musculus); 7560 nM in assay [4] (Homo sapiens); 31200 nM in assay [5] (Mus musculus); 71.6 nM against HDAC1; 1320 nM in assay [1]. The 50% inhibitory concentration (IC50) in assay [6] (Homo sapiens) was found to be 1370 nM.
With `CN1CCN(c2ccc(-c3ccc(/C=C/C(=O)NO)cc3)cc2)CC1` [ZZY-012], the IC50 is 469 nM in assay [2] (Homo sapiens, HCT-116, 72 h); 2320 nM in assay [3] (Mus musculus); 4210 nM in assay [4] (Homo sapiens); 737 nM in assay [5] (Mus musculus); 942 nM against HDAC1; 16.1 nM in assay [1]. Besides, 1140 nM corresponded to half-maximal inhibition in assay [6] (Homo sapiens) (IC50).
As to `N[C@@H]1C[C@H]1c1ccccc1` (racemic) [TCP, tranylcypromine, reference compound], the IC50 is above 10000 nM in assay [2] (72 h); above 10000 nM in assay [3]; above 10000 nM in assay [4]; above 10000 nM in assay [5]; above 100000 nM on HDAC1; above 10000 nM in assay [6].
For `Cc1ccc(C(=O)Nc2cc(N3CCNCC3)ccc2-c2ccc(C(=O)Nc3ccccc3N)cc2C)cc1` [ZZY-005], the IC50 against HDAC1 amounted to 8940 nM; in assay [1] it was 5160 nM.
Turning to `O=C(/C=C/c1ccc(-c2ccc(N3CCNCC3)nc2)cc1)NO` [ZZY-016], the IC50 at HDAC1 was 451 nM; in assay [1], 991 nM.
Consider `Cc1cc(/C=C/C(=O)NO)ccc1-c1ccc(N2CCNCC2)cc1` [ZZY-001], for which the IC50 in assay [2] (Homo sapiens, HCT-116, 72 h) was 1540 nM; in assay [3] (Mus musculus) it was 3870 nM; in assay [4] (Homo sapiens) it was 17800 nM; in assay [5] (Mus musculus), 2200 nM; at HDAC1, 671 nM; in assay [1], 1550 nM. Besides, in assay [6] (Homo sapiens), half-maximal inhibition (IC50) required 2320 nM.
In the case of `Cc1cc(/C=C/C(=O)NO)ccc1-c1ccc(-n2ccnc2)cc1` [ZZY-009], the IC50 at HDAC1 is 2800 nM; in assay [1] it was 1400 nM.
On to `Cc1cc(/C=C/C(=O)NO)ccc1-c1ccc(N2CCN(C)CC2)cc1` [ZZY-011], for which the IC50 in assay [2] (Homo sapiens, HCT-116, 72 h) is 728 nM; in assay [3] (Mus musculus), 2600 nM; in assay [4] (Homo sapiens) it was 5900 nM; in assay [5] (Mus musculus), 1050 nM; against HDAC1, 434 nM; in assay [1], 131 nM. Also, in assay [6] (Homo sapiens), the IC50 was 2040 nM.
In the case of `Cc1cc(/C=C/C(=O)NO)ccc1-c1ccc(N2CCNCC2)nc1` [ZZY-015], the IC50 against HDAC1 is 262 nM; in assay [1], 879 nM.
Take `Cc1cc(/C=C/C(=O)NO)ccc1-c1ccc(N2CCOCC2)cc1` [ZZY-007]: the IC50 on HDAC1 amounted to 1110 nM; in assay [1] it was 477 nM.
On the same counts, the results for `O=C(/C=C/c1ccc(-c2ccc(N3CCCCC3)cc2)cc1)NO` [ZZY-014] are 9860 nM and 1110 nM.
Consider `Cc1cc(C(=O)Nc2ccccc2N)ccc1-c1ccc(N2CCNCC2)cc1` [ZZY-006], for which the half-inhibitory concentration (IC50) at HDAC1 stood at 5380 nM; in assay [1], 2380 nM.
For `Cc1cc(/C=C/C(=O)NO)ccc1-c1ccc(N2CCCCC2)cc1` [ZZY-013], the IC50 at HDAC1 came to 9640 nM; in assay [1], 1410 nM.
On the same counts, the results for `O=C(/C=C/c1ccc(-c2ccc(-n3ccnc3)cc2)cc1)NO` [ZZY-010] are 3520 nM and 8260 nM.
